{"source": "patent US20250170140A1", "about": "“PHARMACEUTICAL COMPOSITION FOR PREVENTING OR TREATING CANCER COMPRISING CARNITINE ACYLCARNITINE CARRIER INHIBITOR AND PEROXISOMAL BETA OXIDATION INHIBITOR” (priority 2021, published 2025)", "format_in_all_cases": "cell-based", "key": {"[1]": {"system": "DU-145 cells", "assay": "SRB assay, prostate cancer cells DU-145", "procedure": "(§1) As a comparison, omeprazole (KN510) and trimetazidine (KN713), a 3-ketoacyl CoA thiolase inhibitor, were co-treated. […] After cell inoculation, 96-well cell culture plates were incubated for 24 hours before the addition of experimental drugs. […] The cells were then incubated in a CO2 incubator for 48 hours, after which the assay was terminated by the addition of cold TCA. Cells were fixed in situ by gently adding 50 μl of cold 50% (w/v) TCA (final concentration: 10% TCA) and incubated at 4° C. for 60 min. The supernatant was discarded, and the plate was washed five times with distilled water and air dried. Sulforhodamine B (SRB) solution (100 μl) of 0.4% (w/v) in 1% acetic acid was added to each well, and the plate was left at room temperature for 10 min. After staining, unbound dye was removed by washing five times with 1% acetic acid, and the plate was air-dried. The bound dye was then solubilized with 10 mM trizma base, and the absorbance was recorded at 515 nm using an automated plate reader. […] The predicted synergistic activity of a combination of the present invention can be calculated using the Colby Equation in Equation 1 (S.R. Colby, Weeds, 1967, pp. 15, 20-22): In the present invention, the actual measure of anti-cancer activity of the combination treatment was the inhibition rate of cancer cell growth (%), and the predicted value (E) of the combination treatment was measured by substituting it into the above Colby Equation."}, "[2]": {"system": "SK-OV-3 cells", "assay": "SRB assay, ovarian cancer cells SK-OV-3", "procedure": "as §1"}, "[3]": {"system": "ACHN cells", "assay": "SRB assay, renal cell carcinoma cell line ACHN", "procedure": "as §1"}, "[4]": {"system": "AGS cells", "assay": "SRB assay, stomach cancer cell line AGS", "procedure": "as §1"}, "[5]": {"system": "SK-HEP-1 cells", "assay": "SRB assay, liver cancer cell line SK-HEP-1", "procedure": "as §1"}, "[6]": {"system": "MKN-28 cells", "assay": "SRB assay, stomach cancer cell line MKN-28", "procedure": "as §1"}, "[7]": {"system": "SF295 cells", "assay": "SRB assay, glioblastoma cell line SF295", "procedure": "as §1"}, "[8]": {"conditions": "Homo sapiens, KN714 5 μM, read-out: Inhibition rate of cancer cell growth (%) (Actual value)"}, "[9]": {"conditions": "Homo sapiens, KN714 10 μM, read-out: Inhibition rate of cancer cell growth (%) (Actual value)"}, "[10]": {"conditions": "Homo sapiens, KN510 100 μM, read-out: Inhibition rate of cancer cell growth (%) (Actual value)"}, "[11]": {"conditions": "Homo sapiens, KN510 200 μM, read-out: Inhibition rate of cancer cell growth (%) (Actual value)"}}}
{"smiles": "CSc1ccc2c(c1)N(CCC1CCCCN1C)c1ccccc1S2", "note": "(centres unmarked) [KN714, 10-[2-(1-methyl-2-piperidyl)ethyl]-2-(methylthio)phenothiazine]", "values": [{"measurement": "inhibition at 5 µM", "setting": "[1]; [8]", "result": 24.5, "unit": "%"}, {"measurement": "inhibition at 10 µM", "setting": "[1]; [9]", "result": 44.7, "unit": "%"}, {"measurement": "Cancer cell growth rate Average (%)", "setting": "[1]; KN714 5 μM", "result": 75.49, "unit": "%"}, {"measurement": "Cancer cell growth rate Average (%)", "setting": "[1]; KN714 10 μM", "result": 55.27, "unit": "%"}, {"measurement": "inhibition at 5 µM", "setting": "[2]; [8]", "result": 7.82, "unit": "%"}, {"measurement": "inhibition at 10 µM", "setting": "[2]; [9]", "result": 37.6, "unit": "%"}, {"measurement": "Cancer cell growth rate Average (%)", "setting": "[2]; KN714 5 μM", "result": 92.18, "unit": "%"}, {"measurement": "Cancer cell growth rate Average (%)", "setting": "[2]; KN714 10 μM", "result": 62.36, "unit": "%"}, {"measurement": "inhibition at 5 µM", "setting": "[3]; [8]", "result": -2.76, "unit": "%"}, {"measurement": "inhibition at 10 µM", "setting": "[3]; [9]", "result": 29.6, "unit": "%"}, {"measurement": "Cancer cell growth rate Average (%)", "setting": "[3]; KN714 5 μM", "result": 102.76, "unit": "%"}, {"measurement": "Cancer cell growth rate Average (%)", "setting": "[3]; KN714 10 μM", "result": 70.39, "unit": "%"}, {"measurement": "inhibition at 5 µM", "setting": "[4]; [8]", "result": 32.9, "unit": "%"}, {"measurement": "inhibition at 10 µM", "setting": "[4]; [9]", "result": 84.5, "unit": "%"}, {"measurement": "Cancer cell growth rate Average (%)", "setting": "[4]; KN714 5 μM", "result": 67.13, "unit": "%"}, {"measurement": "Cancer cell growth rate Average (%)", "setting": "[4]; KN714 10 μM", "result": 15.46, "unit": "%"}, {"measurement": "inhibition at 5 µM", "setting": "[5]; Homo sapiens, SK-HEP1, KN714 5 μM, read-out: Inhibition rate of cancer cell growth (%) (Actual value)", "result": 17.6, "unit": "%"}, {"measurement": "inhibition at 10 µM", "setting": "[5]; Homo sapiens, SK-HEP1, KN714 10 μM, read-out: Inhibition rate of cancer cell growth (%) (Actual value)", "result": 40.1, "unit": "%"}, {"measurement": "Cancer cell growth rate Average (%)", "setting": "[5]; KN714 5 μM", "result": 82.37, "unit": "%"}, {"measurement": "Cancer cell growth rate Average (%)", "setting": "[5]; KN714 10 μM", "result": 59.94, "unit": "%"}, {"measurement": "inhibition at 5 µM", "setting": "[6]; [8]", "result": 8.19, "unit": "%"}, {"measurement": "inhibition at 10 µM", "setting": "[6]; [9]", "result": 64, "unit": "%"}, {"measurement": "Cancer cell growth rate Average (%)", "setting": "[6]; KN714 5 μM", "result": 91.81, "unit": "%"}, {"measurement": "Cancer cell growth rate Average (%)", "setting": "[6]; KN714 10 μM", "result": 36.04, "unit": "%"}, {"measurement": "inhibition at 5 µM", "setting": "[7]; Homo sapiens, SF-295, KN714 5 μM, read-out: Inhibition rate of cancer cell growth (%) (Actual value)", "result": 16.5, "unit": "%"}, {"measurement": "inhibition at 10 µM", "setting": "[7]; Homo sapiens, SF-295, KN714 10 μM, read-out: Inhibition rate of cancer cell growth (%) (Actual value)", "result": 75.5, "unit": "%"}, {"measurement": "Cancer cell growth rate Average (%)", "setting": "[7]; KN714 5 μM", "result": 83.54, "unit": "%"}, {"measurement": "Cancer cell growth rate Average (%)", "setting": "[7]; KN714 10 μM", "result": 24.47, "unit": "%"}]}
{"smiles": "COc1ccc2[nH]c([S+]([O-])Cc3ncc(C)c(OC)c3C)nc2c1", "note": "(centres unmarked) [KN510, omeprazole]", "values": [{"measurement": "inhibition at 100 µM", "setting": "[1]; [10]", "result": 50.4, "unit": "%"}, {"measurement": "inhibition at 200 µM", "setting": "[1]; [11]", "result": 62.9, "unit": "%"}, {"measurement": "Cancer cell growth rate Average (%)", "setting": "[1]; KN510 100 μM", "result": 49.59, "unit": "%"}, {"measurement": "Cancer cell growth rate Average (%)", "setting": "[1]; KN510 200 μM", "result": 37.08, "unit": "%"}, {"measurement": "inhibition at 100 µM", "setting": "[2]; [10]", "result": 11.5, "unit": "%"}, {"measurement": "inhibition at 200 µM", "setting": "[2]; [11]", "result": 59.8, "unit": "%"}, {"measurement": "Cancer cell growth rate Average (%)", "setting": "[2]; KN510 100 μM", "result": 88.53, "unit": "%"}, {"measurement": "Cancer cell growth rate Average (%)", "setting": "[2]; KN510 200 μM", "result": 40.18, "unit": "%"}, {"measurement": "inhibition at 100 µM", "setting": "[3]; [10]", "result": 38.9, "unit": "%"}, {"measurement": "inhibition at 200 µM", "setting": "[3]; [11]", "result": 80.1, "unit": "%"}, {"measurement": "Cancer cell growth rate Average (%)", "setting": "[3]; KN510 100 μM", "result": 61.12, "unit": "%"}, {"measurement": "Cancer cell growth rate Average (%)", "setting": "[3]; KN510 200 μM", "result": 19.93, "unit": "%"}, {"measurement": "inhibition at 100 µM", "setting": "[4]; [10]", "result": 39.6, "unit": "%"}, {"measurement": "inhibition at 200 µM", "setting": "[4]; [11]", "result": 69.5, "unit": "%"}, {"measurement": "Cancer cell growth rate Average (%)", "setting": "[4]; KN510 100 μM", "result": 60.39, "unit": "%"}, {"measurement": "Cancer cell growth rate Average (%)", "setting": "[4]; KN510 200 μM", "result": 30.51, "unit": "%"}, {"measurement": "inhibition at 100 µM", "setting": "[5]; Homo sapiens, SK-HEP1, KN510 100 μM, read-out: Inhibition rate of cancer cell growth (%) (Actual value)", "result": 46.7, "unit": "%"}, {"measurement": "inhibition at 200 µM", "setting": "[5]; Homo sapiens, SK-HEP1, KN510 200 μM, read-out: Inhibition rate of cancer cell growth (%) (Actual value)", "result": 62.8, "unit": "%"}, {"measurement": "Cancer cell growth rate Average (%)", "setting": "[5]; KN510 100 μM", "result": 53.28, "unit": "%"}, {"measurement": "Cancer cell growth rate Average (%)", "setting": "[5]; KN510 200 μM", "result": 37.19, "unit": "%"}, {"measurement": "inhibition at 100 µM", "setting": "[6]; [10]", "result": 50.2, "unit": "%"}, {"measurement": "inhibition at 200 µM", "setting": "[6]; [11]", "result": 74.8, "unit": "%"}, {"measurement": "Cancer cell growth rate Average (%)", "setting": "[6]; KN510 100 μM", "result": 49.80, "unit": "%"}, {"measurement": "Cancer cell growth rate Average (%)", "setting": "[6]; KN510 200 μM", "result": 25.20, "unit": "%"}, {"measurement": "inhibition at 100 µM", "setting": "[7]; Homo sapiens, SF-295, KN510 100 μM, read-out: Inhibition rate of cancer cell growth (%) (Actual value)", "result": 32, "unit": "%"}, {"measurement": "inhibition at 200 µM", "setting": "[7]; Homo sapiens, SF-295, KN510 200 μM, read-out: Inhibition rate of cancer cell growth (%) (Actual value)", "result": 63.5, "unit": "%"}, {"measurement": "Cancer cell growth rate Average (%)", "setting": "[7]; KN510 100 μM", "result": 67.98, "unit": "%"}, {"measurement": "Cancer cell growth rate Average (%)", "setting": "[7]; KN510 200 μM", "result": 36.53, "unit": "%"}]}
